Measured values from patent US11029285B2, “Real-time and quantitative measurement method for cell traction force” (HUNAN AGRICULTURAL UNIVERSITY, priority 2016, dated 2021).

Legend:
Format in all cases: cell-based
[1] = test system: human umbilical vein endothelial cells; test: Cell morphology simulation experiments under EGTA; details: after the EGTA treatments for five minutes
[2] = test system: human umbilical vein endothelial cells; test: Double resonator QCM cell traction force of 50,000 HUVECs on bare gold electrodes under EGTA
Description: (§1) The steps for measuring the cell traction force by using bare gold electrode AT-cut and BT-cut quartz crystals are as follows:
(§2) 4) checking to make sure that the 8-channel QCM instrument QCA922 has crystal resonant frequency and dynamic resistance outputs, connecting detection cells in turn, determining that each detection cell (e.g., two AT-cut crystal detection cells, two BT-cut crystal detection cells) works, and starting the software to acquire data; 5) removing the sterilized water after the data corresponding to each channel is stable, cleaning twice with sterilized water, then cleaning with PBS, add 52 μL of DMEM medium containing fetal bovine serum, and acquiring QCM resonant frequency (f) and dynamic resistance (R) data for 2 h; adding 250 μL of medium containing a certain number (e.g., 20,000) of H9C2 rat cardiomyocytes or human umbilical vein endothelial cells (HUVECs), continuously acquiring f and R data for about 20 h. The QCM relative frequency shift Δf and dynamic resistance change ΔR of each channel caused by the adhesion of cells at different adhesion time are determined by subtracting the corresponding QCM stable values in media of the channel at the time (t). 6) After the experiment, collecting the medium, gently washing with PBS, adding trypsin for digestion, and counting the cells in the collected fraction with a cytometer; 7) Quantitatively measuring the dynamic change ΔS in the cell traction force during the cell adhesion process according to the frequency shifts Δft^AT and Δft^BT of the paired AT-cut and BT-cut quartz crystals at the time t: ΔSt=(KAT−KBT)^−1[tq^ATΔft^AT/fr^AT−tq^BTΔft^BT/fr^BT] (1),
in which, ΔSt is the traction force of cells at the adhesion time t; KAT=2.75×10^−12 cm^2 dyn^−1 and KBT=−2.65×10^−12 cm^2dyn^−1 are stress coefficients of the AT-cut and BT-cut quartz crystals of given crystal orientations, respectively, and are constants. fr^AT and fr^BT are the resonant frequencies of the AT-cut and BT-cut quartz crystals, respectively; tq^AT and tq^BT are the thicknesses of the AT-cut and BT-cut quartz crystals, respectively, and are constants. Therefore, the surface stress or traction force applied to the crystal by cells in the adhesion process or under the action of a drug can be quantitatively measured according to the frequency shifts Δft^AT, Δft^BT (in Hz) of the AT-cut crystal, the BT-cut crystal at any time t relative to its reference point (e.g., a stabile value in the medium or a stabile value before dosing) based on formula (1). The frequency of the quartz crystal is a digital signal, which can be easily, quickly and continuously acquired or measured by a frequency counting device or a QCM special instrument. […]

[3] = test system: H9C2 rat cardiomyocytes; test: Double resonator QCM (AT-cut/BT-cut) cell traction force of H9C2 rat cardiomyocytes under inotropic drugs; details: 20,000 H9C2 cells on bare gold
Protocol: as §1
1) dripping 1 drop of Piranha solution (80° C. 1:3 (v:v) 30% H2O2:H2SO4) to the center of each quartz crystal gold electrode for about 30 s, then rinsing with distilled water, drying with nitrogen, and repeating this step by 3 times;
2) assembling the crystals in a Teflon well cell;
3) cleaning the Teflon cell twice with distilled water, then adding about 300 μL of sterilized water, and putting into a 5% CO2 incubator at 37° C.;
as §2
(§3) in which, ΔSt is the traction force of cells at the adhesion time t; KAT=2.75×10^−12 cm^2 dyn^−1 and KBT=−2.65×10^−12 cm^2dyn^−1 are stress coefficients of the AT-cut and BT-cut quartz crystals of given crystal orientations, respectively, and are constants. fr^AT and fr^BT are the resonant frequencies of the AT-cut and BT-cut quartz crystals, respectively; tq^AT and tq^BT are the thicknesses of the AT-cut and BT-cut quartz crystals, respectively, and are constants. Therefore, the surface stress or traction force applied to the crystal by cells in the adhesion process or under the action of a drug can be quantitatively measured according to the frequency shifts Δft^AT, Δft^BT (in Hz) of the AT-cut crystal, the BT-cut crystal at any time t relative to its reference point (e.g., a stabile value in the medium or a stabile value before dosing) based on formula (1). The frequency of the quartz crystal is a digital signal, which can be easily, quickly and continuously acquired or measured by a frequency counting device or a QCM special instrument. The crystal frequency used in the experiment of the present disclosure is 9 MHz, where tq^AT=0.0185 cm, and tq^BT=0.0282 cm. Thus, formula (1) can be simplified as: ΔSt=2.058×10^4(0.0185Δft^AT−0.0282Δft^BT) (2)
Experimental Steps for Effects of Cardiovascular Stimulating Drug Isoprenaline (ISO) and Inhibitory Drug Verapamil (VRP) on Traction Force of H9C2 Rat Cardiomyocytes
Take four Teflon well cells, two identical 9 MHz AT-cut gold electrode crystals and two identical 9 MHz BT-cut gold electrode crystals. […]

[4] = test system: human umbilical vein endothelial cells; test: Double resonator QCM cell traction force of HUVECs on bare gold electrodes under thrombin or Y-27632; details: 20,000 HUVECs on bare gold
Description: as §1, §2, §3
Experimental Steps for Effects for Vascular Endothelial Barrier Function Destruction Drug Thrombin and Protective Drug Y-27632 on Traction Force of Human Umbilical Vein Endothelial Cells
Take four Teflon well cells, two identical 9 MHz AT-cut gold electrode crystals and two identical 9 MHz BT-cut gold electrode crystals. Based on the aforementioned steps of measuring the cell traction force with bare gold electrode AT-cut and BT-cut quartz crystals, add 300 μL DMEM medium to the four Teflon cells respectively, and collect data for about 2 h; add 300 μL of mediums containing 20,000 human umbilical vein endothelial cells respectively, collect data for about 24 h, then add the drugs thrombin and Y-27632 to the final concentrations, and continue to collect data for about 24 h.

[5] = test system: human umbilical vein endothelial cells; test: Double resonator QCM cell traction force of HUVECs on KRGD or fibronectin modified crystals under blebbistatin or nocodazole; details: 20,000 HUVECs
Protocol: (§4) The Steps for Measuring the Cell Traction Force with AT-Cut and BT-Cut Quartz Crystals Modified with Specific Cell Adhesion Molecules RGD and Fibronectin are as Follows:
(§5) 1) cleaning with anhydrous ethanol and Millipore water, and blowing AT-cut and BT-cut 9 MHz crystals with nitrogen;
2) dripping 1 drop of Piranha solution (80° C. 1:3 (v:v) 30% H2O2:H2SO4) to the quartz crystal gold electrode for treating 30 s, rinsing with Millipore water and anhydrous ethanol, blowing with nitrogen, and repeating 3 times. […] Adding 20,000 HUVEC or H9C2 cells, and starting QCM for monitoring; 8) collecting the medium after the experiment, gently wash with PBS, adding trypsin for digestion, and measuring the cells in the collected fraction with a cytometer; and 9) Quantitatively estimating the dynamic change ΔS in the cell traction force during the cell adhesion process according to the frequency shifts Δft^AT and Δft^BT of the AT-cut and BT-cut quartz crystals modified with the same concentration of RGD or fibronectin at the time t based on formula (2). […]

[6] = test system: human umbilical vein endothelial cells; test: QCM response and cell traction force during adhesion of HUVECs to fibronectin modified gold electrodes
Protocol: as §4, §5
2) dripping 1 drop of Piranha solution (80° C. 1:3 (v:v) 30% H2O2:H2SO4) to the quartz crystal gold electrode for treating 30 s, rinsing with Millipore water and anhydrous ethanol, blowing with nitrogen, and repeating 3 times. Dripping the anhydrous ethanol onto the electrode to stand for a few minutes, rinsing with sterile water, and blowing with nitrogen; 3) installing the surface treated AT-cut and BT-cut quartz crystals into Teflon well cells; 4) adding a mixed anhydrous ethanol solution of 20 mM 3-mercaptopropionic acid and 1 mM triethylene glycol mono-11-mercaptoundecyl ether to the Teflon cell at room temperature, and standing overnight in the dark; 5) taking out the solution, and rinsing with sterile water; adding a PBS buffer solution (pH=5.5) with 150 mM EDC and 30 mM NHS dissolved therein, and standing for about 30 min; 6) taking out the solution, and rinsing with PBS buffer solution (pH=5.5) and sterile water; adding a PBS solution of KRGD or fibronectin of different concentrations, and standing for 1-2 h (RGDK) or overnight (fibronectin); 7) taking out the solution, and rinsing with sterilized PBS and sterile water to obtain KRGD or fibronectin modified gold electrodes. Adding 20,000 HUVEC or H9C2 cells, and starting QCM for monitoring; 8) collecting the medium after the experiment, gently wash with PBS, adding trypsin for digestion, and measuring the cells in the collected fraction with a cytometer; and 9) Quantitatively estimating the dynamic change ΔS in the cell traction force during the cell adhesion process according to the frequency shifts Δft^AT and Δft^BT of the AT-cut and BT-cut quartz crystals modified with the same concentration of RGD or fibronectin at the time t based on formula (2).
However, as the adhesion time increases, the surface of the electrode may adsorb adherent factors beneficial to cell adhesion and extracellular matrix factors secreted by the cells, so that ΔS changes positively, and the cells are gradually spread and are finally close to the value of the cell traction force on the gold electrode modified at the low FN concentration (10 μg/mL).

[7] = electrode modified at 30 μg/mL, 40 μg/mL FN

## O=C(O)CN(CCOCCOCCN(CC(=O)O)CC(=O)O)CC(=O)O [EGTA]
[1]
  cell spreading area: became smaller
[2]; 1 mM EGTA
  cell traction force in the initial phase: did not decrease but increase slightly
[2]; 10 mM EGTA
  cell generated force with the increase of EGTA time: decreases
[2]; 50 mM EGTA, compared with 10 mM
  cell generated force with the increase of EGTA time: decreases more quickly
[2]; after different concentrations of EGTA (1, 10, 50 mM) are added
  overall cell traction force: shows a tendency to decrease

## CC(C)NCC(O)c1ccc(O)c(O)c1 (stereo not shown) [ISO, isoprenaline]
[3]; ISO final concentration 125 nM
  QCM frequency f of AT-cut and BT-cut crystals: decreased
  cell traction force ΔS: decreases and changes negatively
  dynamic resistance R of AT-cut and BT-cut crystals: increased

## COc1ccc(CCN(C)CCCC(C#N)(c2ccc(OC)c(OC)c2)C(C)C)cc1OC (stereo not shown) [VRP, verapamil]
[3]; VRP final concentration 25 nM
  QCM frequency f of AT-cut and BT-cut crystals: increased
  cell traction force ΔS: increases and changes positively
  dynamic resistance R of AT-cut and BT-cut crystals: decreased

## C[C@@H](N)[C@H]1CC[C@H](C(=O)Nc2ccncc2)CC1 [Y-27632]
[4]; 0.5 μM Y-27632
  cell traction force: decreases
  dynamic resistance: decreases
  frequency shift of the crystals: decreases

## Cc1ccc2c(c1)C(=O)C1(O)CCN(c3ccccc3)C1=N2 (stereo not shown) [blebbistatin]
[5]; crystals modified at 50 μg/mL KRGD, 1.22 μM blebbistatin
  cell traction force ΔS: decreases

## COC(=O)Nc1nc2ccc(C(=O)c3cccs3)cc2[nH]1 [nocodazole]
[5]; crystals modified at 20 μg/mL fibronectin, 0.5 μM nocodazole
  cell traction force ΔS: increases at the beginning and then decreases

## fibronectin [FN]
[6]; 20,000 HUVECs, gold electrode modified with FN, DMEM with 2% fetal bovine serum
  cell traction force ΔS (sign): positive
[6]; electrode modified at 10 μg/mL FN
  cell traction force, compared among FN concentrations: close and the least
[6]; electrode modified at 20 μg/mL FN, tested 0, 10, 20, 30, 40, 50 μg/mL
  ΔS, compared among FN concentrations: maximum and stable
[6]; [7]
  QCM frequency shift and dynamic resistance change responses, compared among FN concentrations: medium
  ΔS response over time: increases fastest at the beginning, but fluctuates with time and attenuates to some extent
[6]; electrode modified at 50 μg/mL FN
  cell traction force, compared among FN concentrations: close and the least

## thrombin
[4]; 0.1 unit/mL thrombin
  cell traction force: increases
  dynamic resistance: increases slightly
  frequency shift of the crystals: decreases
